Reference: patent US9993570B2, “Radiolabeled tracers for poly (ADP-ribose) polymerase-1 (PARP-1), methods and uses therefor” (Washington University, priority 2014, dated 2018)

Assays:
[1] = Metabolic stability of [18F]WC-4-138 in mice (percent parent by HPLC); format: in vivo; settings: C57BL/6J mice
Experimental: In these experiments, the metabolic stability of [^18]-WC-4-138 was assessed after injecting 400 μCi into the tail veins of adult male C57BL/6J mice (Jackson Laboratory). Mice were sacrificed by cervical dislocation 5 or 30 minutes post-injection. […] The plasma was separated from the red blood cells by centrifugation at 14000 rpm. Plasma (100 μl) was mixed with acetonitrile at a 1:1.5 ratio and centrifuged at 14000 rpm. Radioactivity associated with the red blood cell pellet, whole plasma, and acetonitrile-soluble and insoluble fractions was measured. The liver of each animal was also collected at the indicated times and frozen on dry ice. Livers were homogenized in 2 ml acetonitrile and 1 ml of the homogenized liver was centrifuged at 14000 rpm. Radioactivity associated with the supernatant and pellet was measured. Acetonitrile-soluble plasma or liver supernatant (100 μl) was mixed at a 1:1 ratio with water and separated by reverse phase HPLC. The parent compound was also separated by HPLC as a reference. The radioactivity associated with each HPLC fraction was measured. The percent parent compound of each sample was calculated as the portion radioactivity associated with the HPLC fractions expected to contain the parent compound.

[2] = Organ biodistribution of [18F]WC-4-138 in athymic nude mice; format: in vivo
Experimental: This example illustrates biodistribution of Compound 12 ([^18F]WC-4-138) in mice. Eight week old, female, athymic nude mice (Harlan) were injected via tail vein with [^18F]WC4-138. Mice were sacrificed by cervical dislocation 5 or 30 minutes after IV tracer injection of 30 μCi, 1 or 2 hours after injection of 45 μCi, or 4 hours after injection of 60 μCi of [^18F]WC-4-138. The acetonitrile-soluble fractions of plasma or liver and the control parent compound were separated via reverse-phase high performance liquid chromatography (HPLC) and the radioactivity of each fraction was quantified. The percent parent compound of each sample was calculated as the portion of radioactivity associated with the HPLC fractions that contained the parent compound. Data are presented as mean±SD, n=3.
Four mice were sacrificed at each timepoint, with the exception of the 2 hour timepoint (n=3). Blood, heart, lung, muscle, liver, spleen, fat, adrenal glands, kidney, uterus, ovaries, bone, bone marrow, pancreas, stomach, small intestine, and large intestine were collected from each animal. All organs were blotted to remove excess blood, weighed, and counted in a Beckmann 6000 gamma counter. The percent injected dose per gram (% ID/g) of tissue was determined for each organ.

percent parent compound relative to the reference compound, blood ([1]; 5 minutes post-injection): 50%
percent parent compound relative to the reference compound, liver ([1]; 5 minutes post-injection): about 80%
percent parent compound relative to the reference compound, blood ([1]; 30 minutes post-injection): about 10%
percent parent compound relative to the reference compound, liver ([1]; 30 minutes post-injection): about 70%
% ID/g, Adrenals ([2]; 5 min after IV injection): 11.80 +/− 0.46 % ID/g
% ID/g, Blood ([2]; 5 min after IV injection): 1.60 +/− 0.21 % ID/g
% ID/g, Bone ([2]; 5 min after IV injection): 3.40 +/− 0.74 % ID/g
% ID/g, Brain ([2]; 5 min after IV injection): 0.55 +/− 0.16 % ID/g
% ID/g, Fat ([2]; 5 min after IV injection): 1.16 +/− 0.49 % ID/g
% ID/g, Heart ([2]; 5 min after IV injection): 6.57 +/− 0.45 % ID/g
% ID/g, Kidney ([2]; 5 min after IV injection): 35.63 +/− 3.33 % ID/g
% ID/g, Liver ([2]; 5 min after IV injection): 12.50 +/− 1.08 % ID/g
% ID/g, Lower Large Intestine ([2]; 5 min after IV injection): 4.17 +/− 0.42 % ID/g
% ID/g, Lung ([2]; 5 min after IV injection): 11.89 +/− 0.89 % ID/g
% ID/g, Marrow ([2]; 5 min after IV injection): 0.06 +/− 0.02 % ID/g
% ID/g, Muscle ([2]; 5 min after IV injection): 2.05 +/− 0.48 % ID/g
% ID/g, Ovaries ([2]; 5 min after IV injection): 4.71 +/− 1.21 % ID/g
% ID/g, Pancress ([2]; 5 min after IV injection): 9.67 +/− 1.98 % ID/g
% ID/g, Small Intestine ([2]; 5 min after IV injection): 12.64 +/− 1.45 % ID/g
% ID/g, Spleen ([2]; 5 min after IV injection): 12.47 +/− 6.69 % ID/g
% ID/g, Stomach ([2]; 5 min after IV injection): 3.17 +/− 0.66 % ID/g
% ID/g, Thyroid ([2]; 5 min after IV injection): 4.18 +/− 1.18 % ID/g
% ID/g, Upper Large Intestine ([2]; 5 min after IV injection): 7.84 +/− 1.02 % ID/g
% ID/g, Uterus ([2]; 5 min after IV injection): 3.44 +/− 2.01 % ID/g
% ID/g, Adrenals ([2]; 30 min after IV injection): 5.18 +/− 0.94 % ID/g
% ID/g, Blood ([2]; 30 min after IV injection): 2.07 +/− 0.16 % ID/g
% ID/g, Bone ([2]; 30 min after IV injection): 4.49 +/− 0.34 % ID/g
% ID/g, Brain ([2]; 30 min after IV injection): 1.03 +/− 0.11 % ID/g
% ID/g, Fat ([2]; 30 min after IV injection): 1.22 +/− 0.25 % ID/g
% ID/g, Heart ([2]; 30 min after IV injection): 3.44 +/− 0.30 % ID/g
% ID/g, Kidney ([2]; 30 min after IV injection): 21.14 +/− 2.21 % ID/g
% ID/g, Liver ([2]; 30 min after IV injection): 8.24 +/− 0.62 % ID/g
% ID/g, Lower Large Intestine ([2]; 30 min after IV injection): 7.43 +/− 0.59 % ID/g
% ID/g, Lung ([2]; 30 min after IV injection): 5.33 +/− 0.48 % ID/g
% ID/g, Marrow ([2]; 30 min after IV injection): 0.11 +/− 0.02 % ID/g
% ID/g, Muscle ([2]; 30 min after IV injection): 2.39 +/− 0.15 % ID/g
% ID/g, Ovaries ([2]; 30 min after IV injection): 5.31 +/− 0.82 % ID/g
% ID/g, Pancress ([2]; 30 min after IV injection): 10.27 +/− 1.28 % ID/g
% ID/g, Small Intestine ([2]; 30 min after IV injection): 13.00 +/− 0.75 % ID/g
% ID/g, Spleen ([2]; 30 min after IV injection): 26.85 +/− 3.52 % ID/g
% ID/g, Stomach ([2]; 30 min after IV injection): 3.77 +/− 0.73 % ID/g
% ID/g, Thyroid ([2]; 30 min after IV injection): 4.03 +/− 0.28 % ID/g
% ID/g, Upper Large Intestine ([2]; 30 min after IV injection): 14.07 +/− 1.72 % ID/g
% ID/g, Uterus ([2]; 30 min after IV injection): 4.53 +/− 1.45 % ID/g
% ID/g, Adrenals ([2]; 60 min after IV injection): 3.51 +/− 1.08 % ID/g
% ID/g, Blood ([2]; 60 min after IV injection): 2.30 +/− 0.28 % ID/g
% ID/g, Bone ([2]; 60 min after IV injection): 5.21 +/− 0.40 % ID/g
% ID/g, Brain ([2]; 60 min after IV injection): 1.24 +/− 0.13 % ID/g
% ID/g, Fat ([2]; 60 min after IV injection): 1.16 +/− 0.45 % ID/g
% ID/g, Heart ([2]; 60 min after IV injection): 2.88 +/− 0.23 % ID/g
% ID/g, Kidney ([2]; 60 min after IV injection): 14.02 +/− 1.84 % ID/g
% ID/g, Liver ([2]; 60 min after IV injection): 6.50 +/− 0.52 % ID/g
% ID/g, Lower Large Intestine ([2]; 60 min after IV injection): 10.53 +/− 1.45 % ID/g
% ID/g, Lung ([2]; 60 min after IV injection): 3.99 +/− 0.29 % ID/g
% ID/g, Marrow ([2]; 60 min after IV injection): 0.13 +/− 0.04 % ID/g
% ID/g, Muscle ([2]; 60 min after IV injection): 2.21 +/− 0.31 % ID/g
% ID/g, Ovaries ([2]; 60 min after IV injection): 4.75 +/− 0.36 % ID/g
% ID/g, Pancress ([2]; 60 min after IV injection): 9.18 +/− 1.37 % ID/g
% ID/g, Small Intestine ([2]; 60 min after IV injection): 8.85 +/− 1.49 % ID/g
% ID/g, Spleen ([2]; 60 min after IV injection): 25.75 +/− 1.95 % ID/g
% ID/g, Stomach ([2]; 60 min after IV injection): 3.62 +/− 0.37 % ID/g
% ID/g, Thyroid ([2]; 60 min after IV injection): 3.32 +/− 0.19 % ID/g
% ID/g, Upper Large Intestine ([2]; 60 min after IV injection): 15.62 +/− 2.31 % ID/g
% ID/g, Uterus ([2]; 60 min after IV injection): 5.51 +/− 0.79 % ID/g
% ID/g, Adrenals ([2]; 120 min after IV injection): 2.69 +/− 0.44 % ID/g
% ID/g, Blood ([2]; 120 min after IV injection): 2.54 +/− 0.13 % ID/g
% ID/g, Bone ([2]; 120 min after IV injection): 6.56 +/− 0.80 % ID/g
% ID/g, Brain ([2]; 120 min after IV injection): 1.58 +/− 0.19 % ID/g
% ID/g, Fat ([2]; 120 min after IV injection): 1.07 +/− 0.11 % ID/g
% ID/g, Heart ([2]; 120 min after IV injection): 2.68 +/− 0.09 % ID/g
% ID/g, Kidney ([2]; 120 min after IV injection): 8.77 +/− 0.72 % ID/g
% ID/g, Liver ([2]; 120 min after IV injection): 4.58 +/− 0.29 % ID/g
% ID/g, Lower Large Intestine ([2]; 120 min after IV injection): 13.35 +/− 0.87 % ID/g
% ID/g, Lung ([2]; 120 min after IV injection): 3.17 +/− 0.28 % ID/g
% ID/g, Marrow ([2]; 120 min after IV injection): 0.07 +/− 0.01 % ID/g
% ID/g, Muscle ([2]; 120 min after IV injection): 2.07 +/− 0.11 % ID/g
% ID/g, Ovaries ([2]; 120 min after IV injection): 4.25 +/− 0.52 % ID/g
% ID/g, Pancress ([2]; 120 min after IV injection): 5.37 +/− 0.64 % ID/g
% ID/g, Small Intestine ([2]; 120 min after IV injection): 6.62 +/− 0.75 % ID/g
% ID/g, Spleen ([2]; 120 min after IV injection): 17.19 +/− 1.08 % ID/g
% ID/g, Stomach ([2]; 120 min after IV injection): 2.56 +/− 0.27 % ID/g
% ID/g, Thyroid ([2]; 120 min after IV injection): 3.46 +/− 0.10 % ID/g
% ID/g, Upper Large Intestine ([2]; 120 min after IV injection): 10.28 +/− 0.65 % ID/g
% ID/g, Uterus ([2]; 120 min after IV injection): 4.13 +/− 0.20 % ID/g
% ID/g, Adrenals ([2]; 240 min after IV injection): 1.74 +/− 0.34 % ID/g
% ID/g, Blood ([2]; 240 min after IV injection): 1.61 +/− 0.05 % ID/g
% ID/g, Bone ([2]; 240 min after IV injection): 9.29 +/− 1.17 % ID/g
% ID/g, Brain ([2]; 240 min after IV injection): 1.17 +/− 0.05 % ID/g
% ID/g, Fat ([2]; 240 min after IV injection): 0.62 +/− 0.44 % ID/g
% ID/g, Heart ([2]; 240 min after IV injection): 1.67 +/− 0.06 % ID/g
% ID/g, Kidney ([2]; 240 min after IV injection): 3.67 +/− 0.54 % ID/g
% ID/g, Liver ([2]; 240 min after IV injection): 2.43 +/− 0.25 % ID/g
% ID/g, Lower Large Intestine ([2]; 240 min after IV injection): 7.17 +/− 0.50 % ID/g
% ID/g, Lung ([2]; 240 min after IV injection): 2.03 +/− 0.43 % ID/g
% ID/g, Marrow ([2]; 240 min after IV injection): 0.04 +/− 0.01 % ID/g
% ID/g, Muscle ([2]; 240 min after IV injection): 1.35 +/− 0.09 % ID/g
% ID/g, Ovaries ([2]; 240 min after IV injection): 2.00 +/− 0.41 % ID/g
% ID/g, Pancress ([2]; 240 min after IV injection): 2.75 +/− 0.44 % ID/g
% ID/g, Small Intestine ([2]; 240 min after IV injection): 3.04 +/− 0.25 % ID/g
% ID/g, Spleen ([2]; 240 min after IV injection): 9.80 +/− 1.01 % ID/g
% ID/g, Stomach ([2]; 240 min after IV injection): 1.20 +/− 0.08 % ID/g
% ID/g, Thyroid ([2]; 240 min after IV injection): 3.23 +/− 0.49 % ID/g
% ID/g, Upper Large Intestine ([2]; 240 min after IV injection): 4.33 +/− 0.57 % ID/g
% ID/g, Uterus ([2]; 240 min after IV injection): 2.05 +/− 0.31 % ID/g
SMILES: O=C1NCCn2c(-c3ccc(OCC[18F])cc3)nc3cccc1c32 [[^18F]12]
